Measured values as given in the supplement of paper PMC11451515.

Test system: SEM cells
Experiment: cell viability relative to DMSO control; higher = less cytotoxic
Details: 48 h
In short: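 Three leukemia lines were tested: NOMO1 and SEM at 500 cells/well and P12-Ichikawa at 1000 cells/well. Each was adapted for at least four passages in each medium and seeded in 5 μl in 1536-well plates, and library compounds in DMSO were pin-dosed from 47 μM to 0.79 nM in 11 threefold steps. After 48 h at 37°C, CellTiter-Glo One luminescence was read. Viability is a percentage relative to DMSO wells on each plate, with cell-free wells as background.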

[1] = HPLM + 10% dialyzed FBS, 0.000781 µM
[2] = HPLM + 10% dialyzed FBS, 0.00234 µM
[3] = HPLM + 10% dialyzed FBS, 0.00702 µM
[4] = HPLM + 10% dialyzed FBS, 0.0211 µM
[5] = HPLM + 10% dialyzed FBS, 0.0632 µM
[6] = HPLM + 10% dialyzed FBS, 0.19 µM
[7] = HPLM + 10% dialyzed FBS, 0.569 µM
[8] = HPLM + 10% dialyzed FBS, 1.71 µM
[9] = HPLM + 10% dialyzed FBS, 5.12 µM
[10] = HPLM + 10% dialyzed FBS, 15.4 µM
[11] = HPLM + 10% dialyzed FBS, 46.1 µM
[12] = RPMI 5 mM glucose + 10% FBS, 0.000781 µM
[13] = RPMI 5 mM glucose + 10% FBS, 0.00234 µM
[14] = RPMI 5 mM glucose + 10% FBS, 0.00702 µM
[15] = RPMI 5 mM glucose + 10% FBS, 0.0211 µM
[16] = RPMI 5 mM glucose + 10% FBS, 0.0632 µM
[17] = RPMI 5 mM glucose + 10% FBS, 0.19 µM
[18] = RPMI 5 mM glucose + 10% FBS, 0.569 µM
[19] = RPMI 5 mM glucose + 10% FBS, 1.71 µM
[20] = RPMI 5 mM glucose + 10% FBS, 5.12 µM
[21] = RPMI 5 mM glucose + 10% FBS, 15.4 µM
[22] = RPMI 5 mM glucose + 10% FBS, 46.1 µM
[23] = RPMI 5 mM glucose + 10% dialyzed FBS, 0.000781 µM
[24] = RPMI 5 mM glucose + 10% dialyzed FBS, 0.00234 µM
[25] = RPMI 5 mM glucose + 10% dialyzed FBS, 0.00702 µM
[26] = RPMI 5 mM glucose + 10% dialyzed FBS, 0.0211 µM
[27] = RPMI 5 mM glucose + 10% dialyzed FBS, 0.0632 µM
[28] = RPMI 5 mM glucose + 10% dialyzed FBS, 0.19 µM
[29] = RPMI 5 mM glucose + 10% dialyzed FBS, 0.569 µM
[30] = RPMI 5 mM glucose + 10% dialyzed FBS, 1.71 µM
[31] = RPMI 5 mM glucose + 10% dialyzed FBS, 5.12 µM
[32] = RPMI 5 mM glucose + 10% dialyzed FBS, 15.4 µM
[33] = RPMI 5 mM glucose + 10% dialyzed FBS, 46.1 µM

SMILES	cell viability [1] [%]	cell viability [2] [%]	cell viability [3] [%]	cell viability [4] [%]	cell viability [5] [%]	cell viability [6] [%]	cell viability [7] [%]	cell viability [8] [%]	cell viability [9] [%]	cell viability [10] [%]	cell viability [11] [%]	cell viability [12] [%]	cell viability [13] [%]	cell viability [14] [%]	cell viability [15] [%]	cell viability [16] [%]	cell viability [17] [%]	cell viability [18] [%]	cell viability [19] [%]	cell viability [20] [%]	cell viability [21] [%]	cell viability [22] [%]	cell viability [23] [%]	cell viability [24] [%]	cell viability [25] [%]	cell viability [26] [%]	cell viability [27] [%]	cell viability [28] [%]	cell viability [29] [%]	cell viability [30] [%]	cell viability [31] [%]	cell viability [32] [%]	cell viability [33] [%]
Oc1c(Cl)cc(Cl)c2cccnc12	112	77	121	104	109	120	122	108	104	66.3	12.3	108	102	94	103	102	113	120	91.4	112	71	7.14	107	93.8	85.1	97.2	97.5	96.3	101	116	99.1	59.8	7.1
CCOC(=O)O[C@]1(C(=O)OCCl)CC[C@H]2[C@@H]3CCC4=CC(=O)C=C[C@]4(C)[C@H]3[C@@H](O)C[C@@]21C	84.2	92.5	93.3	102	101	99.3	95.6	96	102	88.7	100	82.9	85.4	87.9	84.6	92.7	87.3	85.1	109	107	96.1	96.6	83.5	87.4	93.6	85.7	85.4	94.8	86.1	89.3	96.4	99.2	92
Nc1nc(N)c(N=O)c(OCC2CCCCC2)n1	71.5	92.1	54.6	88.7	91.9	100	89.4	75.5	40.8	39	28.2	94.7	84.2	56.6	91.4	97.2	93.3	96.7	74	47.8	38.1	27.4	81.6	86.2	71.4	86.8	96	100	102	79	56.5	45.2	32
CN1CCN(CCCN2c3ccccc3Sc3ccc(Cl)cc32)CC1.O=C(O)/C=C\C(=O)O.O=C(O)/C=C\C(=O)O	105	112	110	113	108	112	104	114	112	117	82.2	102	113	118	111	129	122	119	121	119	115	68.6	101	99.7	128	113	115	122	119	133	133	116	104
CC(S)C(=O)NCC(=O)O (centres undefined)	40	99	59.5	95	105	101	92.8	103	90.6	113	95	33	102	50.5	87.8	114	105	101	105	84	109	108	35.6	92.5	45	101	123	108	114	118	80.7	119	104
O=C(NCC1CCOCC1)c1cnc(Nc2ccc(Cl)cc2Cl)nc1C(F)(F)F	89.6	98.1	99	67.7	108	103	106	102	99.5	114	117	95.9	103	108	61.9	99.1	100	99.7	103	99.1	105	98.5	94.2	97.8	108	67.9	121	119	113	112	91.7	123	101
Oc1ccc([C@@H]2Oc3ccc(O)cc3[C@@H]3CCC[C@@H]32)cc1	71.9	90.5	91.8	92	80.2	90.6	38.7	81.9	89.3	31.4	21.6	60.6	103	97.5	103	106	111	44.4	103	104	40.3	18.1	80.4	94.9	98.4	97	96.1	104	102	103	94.9	29	18.4
O=C1N\C=N/C2=C1C=N[NH]2	74.3	77.4	74	95.1	70.6	90.7	77.2	22.6	93.8	94.5	41.9	70.2	79	69.4	90.4	62.5	91.7	81.2	20.2	81.6	88.8	71.8	74.8	86.2	81.4	104	79.1	99.2	82.1	32.9	96.1	86.7	47.4
